Measurements from ChEMBL document CHEMBL5143725, “Optimization of TEAD P-Site Binding Fragment Hit into In Vivo Active Lead MSC-4106” (J Med Chem, 2022).
Calls of active or inactive are those of the source. The calls are words filed in the database; no cut-off is given here.

Key:
NCI-H226 = test: In vivo antitumor activity against human NCI-H226 cells xenografted in mouse model assessed as tumor growth inhibition at 100 mg/kg, po qd measured after 32 days; type: functional, organism-based; conditions: time 32.0 day
[1] = target: T1, Transcriptional enhancer factor TEF-4 (Homo sapiens, UniProt Q15562); test: Binding affinity to human TEAD2 (217 to 447 residues) expressed in Escherichia coli BL21 Star (DE3) assessed as change in melting temperature incubated for 2 hrs measuring scattering fluorescence by Nano Differential scanning fluorometry
T1 sequence (Q15562 whole entry, the tested form may be a part): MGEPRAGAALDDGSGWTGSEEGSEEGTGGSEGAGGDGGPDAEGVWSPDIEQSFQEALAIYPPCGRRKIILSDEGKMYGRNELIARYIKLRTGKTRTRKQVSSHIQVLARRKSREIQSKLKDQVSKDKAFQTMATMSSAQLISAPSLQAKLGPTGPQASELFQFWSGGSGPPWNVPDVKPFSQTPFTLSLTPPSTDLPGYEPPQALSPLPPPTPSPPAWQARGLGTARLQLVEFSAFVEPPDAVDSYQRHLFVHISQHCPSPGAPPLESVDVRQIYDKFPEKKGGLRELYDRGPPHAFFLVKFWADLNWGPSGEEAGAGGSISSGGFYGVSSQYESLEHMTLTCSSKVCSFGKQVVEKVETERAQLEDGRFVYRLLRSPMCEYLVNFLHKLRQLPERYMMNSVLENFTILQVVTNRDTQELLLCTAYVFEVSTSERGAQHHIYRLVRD

SW-620 = test: Cytotoxicity against YAP/TAZ knockout human SW620 cells assessed as cell viability measured for 4 days by celltiter-glo assay; conditions: SW-620, 96 h
[2] = target: T2, Transcriptional enhancer factor TEF-5 (Homo sapiens, UniProt Q99594); test: Binding affinity to human TEAD3 (216 to 435 residues) expressed in Escherichia coli BL21 Star (DE3) by surface plasmon resonance assay
T2 sequence (Q99594 whole entry, the tested form may be a part): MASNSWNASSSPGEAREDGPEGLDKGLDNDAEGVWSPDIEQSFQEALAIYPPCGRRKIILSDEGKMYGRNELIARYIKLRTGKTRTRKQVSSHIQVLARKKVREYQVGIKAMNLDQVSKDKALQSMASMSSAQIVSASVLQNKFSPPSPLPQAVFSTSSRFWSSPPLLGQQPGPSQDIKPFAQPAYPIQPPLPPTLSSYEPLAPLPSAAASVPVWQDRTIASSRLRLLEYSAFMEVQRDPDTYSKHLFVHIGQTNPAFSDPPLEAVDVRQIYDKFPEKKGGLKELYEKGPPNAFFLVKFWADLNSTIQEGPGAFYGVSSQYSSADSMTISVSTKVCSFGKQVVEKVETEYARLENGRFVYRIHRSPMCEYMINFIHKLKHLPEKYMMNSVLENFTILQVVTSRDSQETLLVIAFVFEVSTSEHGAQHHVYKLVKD

[3] = target: T1, Transcriptional enhancer factor TEF-4; test: Binding affinity to human TEAD2 (217 to 447 residues) expressed in Escherichia coli BL21 Star (DE3) by surface plasmon resonance assay
[4] = Inhibition of YAP/TAZ-TEAD interaction in human SK-HEP1 cells incubated for 24 hrs by luciferase reporter gene assay; type: cell-based
[5] = target: T1, Transcriptional enhancer factor TEF-4; test: Inhibition of pSF-CMV-P-FLAG tagged human TEAD2 palmitoylation transfected in HEK293 cells at 10 uM incubated for 6 hrs by Western blot analysis relative to control; type: cell-based
[6] = target: T3, Transcriptional enhancer factor TEF-1 (Homo sapiens, UniProt P28347); test: Inhibition of pSF-CMV-P-FLAG tagged human TEAD1 palmitoylation transfected in HEK293 cells at 10 uM incubated for 6 hrs by Western blot analysis relative to control; type: cell-based
T3 sequence (P28347 whole entry): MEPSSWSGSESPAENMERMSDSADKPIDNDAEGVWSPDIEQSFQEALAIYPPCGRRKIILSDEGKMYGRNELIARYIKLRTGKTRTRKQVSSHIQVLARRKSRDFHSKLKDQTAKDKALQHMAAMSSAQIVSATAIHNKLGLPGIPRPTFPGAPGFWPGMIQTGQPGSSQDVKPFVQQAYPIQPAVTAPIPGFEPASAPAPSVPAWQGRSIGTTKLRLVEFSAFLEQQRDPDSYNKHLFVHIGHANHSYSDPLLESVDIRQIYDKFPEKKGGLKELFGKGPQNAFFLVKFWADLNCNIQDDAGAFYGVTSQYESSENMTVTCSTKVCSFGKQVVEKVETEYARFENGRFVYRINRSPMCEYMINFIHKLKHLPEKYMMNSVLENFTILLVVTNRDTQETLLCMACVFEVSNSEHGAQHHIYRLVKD

[7] = Inhibition of connective tissue growth factor expression in human NCI-H226 cells incubated for 96 hrs by ELISA method; conditions: NCI-H226, 96 h
[8] = target: T2, Transcriptional enhancer factor TEF-5; test: Binding affinity to human TEAD3 (216 to 435 residues) expressed in Escherichia coli BL21 Star (DE3) assessed as change in melting temperature incubated for 2 hrs by measuring tryptophane fluorescence by Nano Differential scanning fluorometry
[9] = Inhibition of cysteine-rich angiogenic inducer 61 expression in human NCI-H226 cells incubated for 96 hrs by ELISA method; conditions: NCI-H226, 96 h
[10] = target: T4, Transcriptional enhancer factor TEF-3 (Homo sapiens, UniProt Q15561); test: Binding affinity to human TEAD4 (217 to 434 residues) expressed in Escherichia coli BL21 Star (DE3) by surface plasmon resonance assay
T4 sequence (Q15561 whole entry, the tested form may be a part): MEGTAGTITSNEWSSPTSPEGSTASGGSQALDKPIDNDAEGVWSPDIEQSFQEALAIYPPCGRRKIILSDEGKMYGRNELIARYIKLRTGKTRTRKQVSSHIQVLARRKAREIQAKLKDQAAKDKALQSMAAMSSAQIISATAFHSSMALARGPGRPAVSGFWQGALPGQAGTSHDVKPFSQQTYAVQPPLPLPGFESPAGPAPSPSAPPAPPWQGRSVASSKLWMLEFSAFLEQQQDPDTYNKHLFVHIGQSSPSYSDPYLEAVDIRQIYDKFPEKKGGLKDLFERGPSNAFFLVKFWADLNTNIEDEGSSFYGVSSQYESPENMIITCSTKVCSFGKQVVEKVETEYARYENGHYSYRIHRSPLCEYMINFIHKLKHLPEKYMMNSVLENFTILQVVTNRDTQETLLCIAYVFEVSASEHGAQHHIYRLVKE

[11] = target: T4, Transcriptional enhancer factor TEF-3; test: Binding affinity to human TEAD4 (217 to 434 residues) expressed in Escherichia coli BL21 Star (DE3) assessed as change in melting temperature incubated for 2 hr by measuring tryptophane fluorescence by Nano Differential scanning fluorometry
[12] = target: T2, Transcriptional enhancer factor TEF-5; test: Inhibition of pSF-CMV-P-FLAG tagged human TEAD3 palmitoylation transfected in HEK293 cells at 1 uM incubated for 6 hrs by Western blot analysis relative to control; type: cell-based
[13] = target: T3, Transcriptional enhancer factor TEF-1; conditions: HEK293, dose 100.0 nM, time 6.0 hrs
[14] = target: T3, Transcriptional enhancer factor TEF-1; test: Binding affinity to human TEAD1 (209 to 426 residues) expressed in Escherichia coli BL21 Star (DE3) by surface plasmon resonance assay
[15] = Inhibition of cysteine-rich angiogenic inducer 61 expression in human SK-HEP1 cells incubated for 96 hrs by ELISA method; conditions: SK-HEP1, 96 h
[16] = target: T1, Transcriptional enhancer factor TEF-4; test: Binding affinity to human TEAD2 (217 to 447 residues) expressed in Escherichia coli BL21 Star (DE3) assessed as change in melting temperature incubated for 2 hrs by measuring tryptophane fluorescence by Nano Differential scanning fluorometry
[17] = target: T3, Transcriptional enhancer factor TEF-1; test: Binding affinity to human TEAD1 (209 to 426 residues) expressed in Escherichia coli BL21 Star (DE3) assessed as change in melting temperature incubated for 2 hrs by measuring tryptophane fluorescence by Nano Differential scanning fluorometry
[18] = target: T4, Transcriptional enhancer factor TEF-3; test: Inhibition of pSF-CMV-P-FLAG tagged human TEAD4 palmitoylation transfected in HEK293 cells at 10 uM incubated for 6 hrs by Western blot analysis relative to control; type: cell-based
[19] = Inhibition of connective tissue growth factor expression in human SK-HEP1 cells incubated for 96 hrs by ELISA method; conditions: SK-HEP1, 96 h
[20] = target: T2, Transcriptional enhancer factor TEF-5; test: Inhibition of pSF-CMV-P-FLAG tagged human TEAD3 palmitoylation transfected in HEK293 cells at 10 uM incubated for 6 hrs by Western blot analysis relative to control; type: cell-based

Compound: Cn1cc2c3cc(C(=O)O)ccc3n(-c3ccc(C(F)(F)F)cc3)c2n1
- Activity (NCI-H226): Active
- ΔTm [1]: 3.7 °C
- IC50 (SW-620): > 30000 nM
- Kd [2]: 1400 nM
- Kd [3]: 4600 nM
- IC50 [4]: 4 nM
- inhibition [5]: 24%
- inhibition [6]: 90%
- IC50 [7]: 11 nM
- ΔTm [8]: 5.1 °C
- IC50 [9]: 13 nM
- Kd [10]: 5400 nM
- ΔTm [11]: 0.4 °C
- inhibition [12]: 3.8%
- inhibition [13]: 55.7%
- Kd [14]: 120 nM
- IC50 [15]: 24 nM
- ΔTm [16]: -3.7 °C
- ΔTm [17]: 13.4 °C
- inhibition [18]: 12%
- IC50 [19]: 10 nM
- inhibition [20]: 81%
